Reference: ChEMBL document CHEMBL1122711, “Design, synthesis, and testing of potential antisickling agents. 4. Structure-activity relationships of benzyloxy and phenoxy acids” (J Med Chem, 1984)

Experiments:
[1] = human, 10000 µM
[2] = human, 20000 µM
Description: Solubility ratio ([HbS+drug (20 mM)]/[HbS-drug]

[3] = human, 40000 µM
Description: Solubility ratio ([HbS+drug (40 mM)]/[HbS-drug])

[4] = human, 5000 µM
Description: Solubility ratio ([HbS+drug (5 mM)]/[HbS-drug])

N[C@@H](Cc1ccccc1)C(=O)O [PHENYLALANINE]
Solubility ratio [1]: 1.048 | Solubility ratio [2]: 1.093 | Solubility ratio [3]: 1.178 | Solubility ratio [4]: 1.036
